Key:
in vitro = settings: monkey
SFTSV = assay: microbe, parasite or virus in culture; format: cell-based, severe fever with thrombocytopenia syndrome virus; settings: for EC50: Severe fever with thrombocytopenia syndrome virus, Vero, 72 h, read-out: EC50 (50% effective concentration), anti-SFTSV activity

For CCN(CC)Cc1cc(Nc2ccnc3cc(Cl)ccc23)ccc1O [Compound 1, 4-(7-Chloroquinolin-4-ylamino)-2-diethylaminomethylphenol], the CC50 (in vitro) was greater than 100 µM, the “anti-SFTSV activity (intracellular SFTSV RNA level), in words” value (“anti-SFTSV activity” below) (SFTSV) was “selective inhibitor of SFTSV replication” and the EC50 (SFTSV) was 19.1 ± 5.1 µM.

Work on CCN(CC)Cc1cc(Nc2ccnc3cc(Br)ccc23)ccc1O [Compound 3, 4-(7-Bromoquinolin-4-ylamino)-2-diethylaminomethylphenol] yielded a CC50 (in vitro) greater than 100 µM and an EC50 (SFTSV) of 31.1 ± 16.8 µM.

For CCN(CC)Cc1cc(Nc2ccnc3cc(F)ccc23)ccc1O [Compound 2, 4-(7-Fluoroquinolin-4-ylamino)-2-diethylaminomethylphenol], the CC50 (in vitro) was greater than 100 µM and the EC50 (SFTSV) was 36.6 ± 9.3 µM.

Molecule CCN(CC)Cc1cc(Nc2ccnc3cc(I)ccc23)ccc1O [Compound 4, 4-(7-Iodoquinolin-4-ylamino)-2-diethylaminomethylphenol] has a CC50 (in vitro) greater than 100 µM and an EC50 (SFTSV) of 15.6 ± 4.9 µM.

With NC(=O)c1ncn([C@@H]2O[C@H](CO)[C@@H](O)[C@H]2O)n1 [Ribavirin] the CC50 (in vitro) was greater than 100 µM, the “anti-SFTSV activity” value (SFTSV) was “reduced the intracellular SFTSV RNA level in a dose-dependent manner” and the EC50 (SFTSV) was 40.1 ± 16.3 µM. For the same molecule, the “viability of mock-infected Vero cells” value (Vero cells) was “did not reduce the viability”.

For NC(=O)c1nc(F)c[nH]c1=O [Favipiravir], the CC50 (in vitro) was greater than 100 µM, the “anti-SFTSV activity” value (SFTSV) was “reduced the intracellular SFTSV RNA level in a dose-dependent manner” and the EC50 (SFTSV) was 25 ± 9.3 µM. For the same molecule, the “viability of mock-infected Vero cells” value (Vero cells) was “did not reduce the viability”.

Reference: PMC5890513 (Antiviral Chemistry & Chemotherapy, 2017)
